How the values were obtained:
Format in all cases: cell-based
blood [1] = assay: Time course of mRNA induction in blood at two incubation temperatures (ACTB, IL2, CXCL9); details: strip wells, 42° C. vs 37° C., 0-9 hours; FIGS. 12C and 12F
Description: Briefly, 96-well filterplates were assembled with leukocyte reduction membranes (Leukosorb; Pall) and placed over oligo(dT)-immobilized collection plates. 150 μL of 5 mmol/L Tris (pH 7.4) was applied to wet the filter membranes. After centrifugation at 120 g for 1 min at 4° C. to remove the Tris solution from the membranes, 50 μL of the stimulated whole blood samples was applied to each well and immediately centrifuged at 120 g for 2 min at 4° C. The wells were then washed once with 300 μL of phosphate-buffered saline. […]
(§1) cDNA was synthesized directly in each well by addition of 30 μL of buffer containing 1× reverse transcription buffer [50 mM KCl, 10 mM Tris-HCl (pH 8.3), 5.5 mM MgCl2, 1 nL/μL Tween 20], 1.25 mM each deoxynucleoside triphosphate, 4 units of rRNasin, and 80 U of MMLV reverse transcriptase (Promega; without primers) and incubation at 37° C. for 2 h. […] The cycle threshold (Ct), i.e., the cycle at which certain amounts of PCR products (based on fluorescence) were generated, was determined with analytical software (SDS; Applied Biosystems). The ΔCt were determined by subtracting each Ct of PHA-treated sample from each Ct of PBS-treated control sample, and the fold increase was calculated by 2^-ΔCt.
The time course of induction was also evaluated for two different incubation temperatures. […] ACTB, IL2, andCXCL9 mRNA were quantified.

blood [2] = assay: Induction of IL2 or CXCL9 after incubation in the portable device vs controlled incubators; details: FIGS. 13A and 13B
Description: FIGS. 13A and 13B depict a comparison of the level of induction of 1L2 or CXCL9 when stimulated by PHA or IFN alpha and then incubated in the portable device disclosed herein or in controlled incubators (at a variety of temperatures). […] This again represents the degree of flexibility in temperatures and times that can be used (as disclosed above) to perform ex vivo stimulation of blood samples.

blood [3] = assay: IFNa2b stimulation of blood: vacuum tube vs multi-well strip, immediate vs delayed
Description: Briefly, 96-well filterplates were assembled with leukocyte reduction membranes (Leukosorb; Pall) and placed over oligo(dT)-immobilized collection plates. 150 μL of 5 mmol/L Tris (pH 7.4) was applied to wet the filter membranes. After centrifugation at 120 g for 1 min at 4° C. to remove the Tris solution from the membranes, 50 μL of the stimulated whole blood samples was applied to each well and immediately centrifuged at 120 g for 2 min at 4° C. The wells were then washed once with 300 μL of phosphate-buffered saline. After centrifugation at 2000 g for 5 min at 4° C. to remove the saline solution, 60 μL of stock lysis buffer [5 g/L N-lauroylsarcosine, 4× standard saline citrate, 10 mmol/L Tris-HCl (pH 7.4), 1 mmol/L EDTA, 1 mL/L IGEPAL CA-630 (substitute of NP-40), 1.79 mol/L guanidine thiocyanate (all from Sigma)], supplemented with 10 mL/L 2-mercaptoethanol (Bio-Rad), 0.5 g/L proteinase K (Pierce), 0.1 g/L salmon sperm DNA (5 Prime Eppendorf/Brinkman), 0.1 g/L Escherichia coli tRNA (Sigma), 5 nmol/L each of the specific reverse primers, and 10^10 molecules/L of synthetic RNA34 (as external control), was added to each well of the filterplates. The plates were then incubated at 37° C. for 10 min, placed over oligo(dT)-immobilized collection microplates (GenePlate; RNAture), and centrifuged at 2000 g for 5 min at 4° C. […]
as §1, with “2^-ΔCt. […]” for “2^-ΔCt.”

blood [4] = assay: Ex vivo stimulation of blood in strip wells, then 4° C. storage; ACTB, p21 and PUMA mRNA quantified; details: for levels of both p21 and PUMA after 3 days of post-stimulation storage: stored at 4° C. for 3 days after stimulation, higher Ct values
Description: Briefly, 96-well filterplates were assembled with leukocyte reduction membranes (Leukosorb; Pall) and placed over oligo(dT)-immobilized collection plates. 150 μL of 5 mmol/L Tris (pH 7.4) was applied to wet the filter membranes. After centrifugation at 120 g for 1 min at 4° C. to remove the Tris solution from the membranes, 50 μL of the stimulated whole blood samples was applied to each well and immediately centrifuged at 120 g for 2 min at 4° C. The wells were then washed once with 300 μL of phosphate-buffered saline. After centrifugation at 2000 g for 5 min at 4° C. to remove the saline solution, 60 μL of stock lysis buffer [5 g/L N-lauroylsarcosine, 4× standard saline citrate, 10 mmol/L Tris-HCl (pH 7.4), 1 mmol/L EDTA, 1 mL/L IGEPAL CA-630 (substitute of NP-40), 1.79 mol/L guanidine thiocyanate (all from Sigma)], supplemented with 10 mL/L 2-mercaptoethanol (Bio-Rad), 0.5 g/L proteinase K (Pierce), 0.1 g/L salmon sperm DNA (5 Prime Eppendorf/Brinkman), 0.1 g/L Escherichia coli tRNA (Sigma), 5 nmol/L each of the specific reverse primers, and 10^10 molecules/L of synthetic RNA34 (as external control), was added to each well of the filterplates. The plates were then incubated at 37° C. for 10 min, placed over oligo(dT)-immobilized collection microplates (GenePlate; RNAture), and centrifuged at 2000 g for 5 min at 4° C. After overnight storage at 4° C., the microplates were washed 3 times with 100 μL of plain lysis buffer and then 3 times with 150 μL of wash buffer [0.5 mol/L NaCl, 10 mmol/L Tris (pH 7.4) 1 mmol/L EDTA] at 4° C.
cDNA was synthesized directly in each well by addition of 30 μL of buffer containing 1× reverse transcription buffer [50 mM KCl, 10 mM Tris-HCl (pH 8.3), 5.5 mM MgCl2, 1 nL/μL Tween 20], 1.25 mM each deoxynucleoside triphosphate, 4 units of rRNasin, and 80 U of MMLV reverse transcriptase (Promega; without primers) and incubation at 37° C. for 2 h. From each 30-μL reaction, 4 μL of cDNA was transferred directly to 384-well PCR plates, and 5 μL of TaqMan universal master mixture (Applied Biosystems) and 1 μL of 5 μM each of the forward and reverse primers for each mRNA or beta-actin were added. PCR was carried out in a PRISM 7900HT (Applied Biosystems), with 1 cycle of 95° C. for 10 min followed by 45 cycles of 95° C. for 30 s, 55° C. for 30 s, and 60° C. for 1 min. Each gene was amplified in separate wells. The cycle threshold (Ct), i.e., the cycle at which certain amounts of PCR products (based on fluorescence) were generated, was determined with analytical software (SDS; Applied Biosystems). The ΔCt were determined by subtracting each Ct of PHA-treated sample from each Ct of PBS-treated control sample, and the fold increase was calculated by 2^-ΔCt.
In order to evaluate the stability of samples after stimulation, blood was stimulated with DNR (10 μM in final concentration), AraC (100 μM in final concentration), or PBS in strip wells for 4 hours at 37° C., and then stored at 4° C. for 0-3 days. After the 4° C. incubation, the samples were stored in a −80° C. freezer until analysis. These experimental conditions are designed to represent the possible conditions a sample would be exposed to during transport in the portable incubation devices described herein. Three mRNAs (ACTB, p21, and PUMA) were quantified as described above.

blood [5] = assay: PHA stimulation of blood: PHA-containing collection tubes vs multi-well strip; details: 37° C. for 4 hours; FIGS. 9A-9D
Description: Blood collection tubes were manufactured as described above. Three tubes were stored at 4° C. (tubes PHA 4C #1, #2, and #3 in FIG. 9) or room temperature (PHA RT in FIG. 9) for 20 days. Blood was then drawn into 6 tubes: a control heparin tube, a plain heparin tube, and 4 PHA-containing tubes. The blood from the control heparin tube was stimulated (by PBS or PHA) in micro-plate tube strips (3 wells each, 60 μL blood/well). The remaining 5 tubes were incubated at 37° C. for 4 hours. Various mRNA were quantified by using SYBR green real time PCR as described previously (Mitsuhashi M et al. Clin. Chem. 52:634-642, 2006). […]
as §1

[6] = blood stored at 4° C. for 6 hours before ex vivo stimulation
[7] = DNR 10 μM or AraC 100 μM final, 4 hours at 37° C., vs PBS
[8] = DNR 10 μM or AraC 100 μM final, 4 hours at 37° C., vs PBS, FIGS. 11A-11B

interferon alpha 2b [IFNa2b]
CXCL-9 induction (blood [1]): induced to a similar extent | CXCL9 induction, portable device vs controlled incubators (blood [2]): not significantly different | performance of IFNa2b tube vs conventional IFNa2b stimulation in strip wells (blood [3]; 2 hours at 37° C. immediately after blood draw, FIGS. 10A-10C): identical | CXCL10 induction (blood [3]; [6]): less induction | GIP2 induction (blood [3]; [6]): less induction

COc1cccc2c1C(=O)c1c(O)c3c(c(O)c1C2=O)C[C@@](O)(C(C)=O)C[C@@H]3O[C@H]1C[C@H](N)[C@H](O)[C@H](C)O1 [DNR, daunorubicin]
PUMA expression induction (blood [4]; [7]): induced | beta actin mRNA induction (blood [4]; [8]): not induced | p21 mRNA induction (blood [4]; [8]): significant induction | levels of both p21 and PUMA after 3 days of post-stimulation storage (blood [4]): appear to have decreased

phytohemaglutinin [PHA]
IL2 induction, portable device vs controlled incubators (blood [2]): not significantly different | mRNA (beta-actin, interferon gamma, interleukin 2, GM-CSF): stimulation in multi-well strip vs PHA-containing blood collection tubes (blood [5]): no differences were detected

Nc1ccn([C@@H]2O[C@H](CO)[C@@H](O)[C@@H]2O)c(=O)n1 [AraC, cytarabine]
PUMA expression induction (blood [4]; [7]): induced | beta actin mRNA induction (blood [4]; [8]): not induced | levels of both p21 and PUMA after 3 days of post-stimulation storage (blood [4]): appear to have decreased
